Tested on: murine tumor cell lines (breast-4T1, glioma-CT2A, and sarcoma KP15B8)
Procedure: Guava Annexin V flow cell cytometry was used to quantify cytotoxicity in 3 murine tumor cell lines (breast-4T1, glioma-CT2A, and sarcoma KP15B8). In-vitro X-PACT studies were conducted on cells prepared in the following manner. Cells were incubated in appropriate growing media and buffers before being trypsinized and plated evenly onto twelve (12) well plates for 24 hours. About 20 minutes prior to X-PACT irradiation, the wells of each plate were exposed to the following combinations of additives: (1) control ˜cells only with no additives, (2) UVADEX only, (3) phosphors only, (4) UVADEX+phosphors. […] The plates were then irradiated with x-rays by placing the plate at a known distance from the x-ray source (e.g., 50 cm). […]
Two primary flow cytometry metrics were used to evaluate the X-PACT treatments, both determined at 48h after X-PACT treatment. […] The first metric is metabolically viable cell count (or cell viability) determined from the number of whole cells per well as determined using forward scattering (FSC). […] (All wells on a given plate receive the same dose.) The second metric is Annexin V (+) signal, which is the fraction of the metabolically viable cells which expressed a positive Annexin V signal as determined by flow cell cytometry, and include any cells advancing toward early or late apoptotic cell death. […]

Substance	% Viability (1-Toxicity)
3Ca3(PO4)2•Ca(Fl,Cl)2:Sb^3+,Mn^2+ [GTP 4300]	70%
Zn2SiO4:Mn	75%

From patent publication US11207409B2, “X-RAY psoralen activated cancer therapy (X-PACT) with associated treatments” (priority 2017, dated 2021)
